{"source": "patent US11414489B2", "about": "“Combination therapy with a hyaluronan-degrading enzyme and an immune checkpoint inhibitor” (HALOZYME, INC., priority 2014, dated 2022)", "key": {"[1]": {"test_system": "parental MH194+PSC4 syngeneic tumors", "experiment": "Tumor growth in parental MH194+PSC4 syngeneic tumor mouse model (tumor volume, TGI)", "type": "in vivo, C57BL/6 mice", "conditions": "for Tumor volume, Day 0: Day 0 (baseline); for Tumor volume, Day 0 / Tumor volume, Day 3 / Tumor volume, Day 7 / Tumor volume, Day 10 / Tumor volume, Day 14 / Tumor volume, Day 17 / Tumor volume, Day 21: mean ± SEM; for TGI (tumor growth inhibition): last day vs vehicle", "experimental": "MH194 mouse pancreatic carcinoma cells (derived from the KrasLSL.G12D/+p53R172H/+PdxCretg/+ genetically engineered mouse model) were engineered to constitutively express human hyaluronan synthase 3 (HAS3) as in Example 1A. Stably transduced cells, designated MH194/HAS3 cells, were selected by hygromycin treatment. MH194/HAS3 and parental MH194 cells were maintained in tissue culture as an adherent monolayer in DMEM medium supplemented with 2 mM L-glutamine and 10% fetal bovine serum at 37° C. and 5% CO2.\nPancreas from C57BL/6 mice were minced with razor blades and placed in 2 mL of a digestion buffer containing 0.05% collagenase P, 0.1% DNAse, and 0.02% Pronase in Gey's balanced salt solution (GBSS). Following two […] digestion incubations at 37° C. with thorough mixing after each incubation, the resulting cell suspension was filtered through a 100 μm nylon mesh, washed twice in GBSS with 0.3% bovine serum albumin (BSA), and resuspended in 10 mL GBSS/BSA. Eight mL of Histodenz (Sigma, Cat. No. D2158) was added to the cell suspension, and the entire volume was pipetted under 6 mL GBSS/BSA in order to generate a discontinuous density gradient. Following centrifugation for 20 min at 1,400 g with the brake set at zero, the desired cells were harvested from the interface between the two density volumes and washed once with PBS and once with DMEM medium supplemented with 2 mM L-glutamine, 10% fetal bovine serum, and 1% amphotericin-B (complete DMEM). Cells were immortalized using Lenti-SV40 (Capital Biosciences, Cat. No. CIP-0011) using manufacturer's protocol. The resulting cell line, designated PSC4, were maintained in tissue culture as an adherent monolayer in complete DMEM at 37° C. and 5% CO2.\nMH194/HAS3 cells as described in part A above were trypsin-harvested at 80-90% confluency, washed twice with sterile Hanks Balanced Salt Solution (HBSS), and diluted with HBSS to a concentration of 4×10^6 cells/mL. Male C57BL/6 mice were obtained at 4-6 weeks from Taconic Farms and housed 4/cage. For tumor inoculations, mice were injected with 50 μL of cell suspension containing 2×10^5 MH194/HAS3 cells or parental MH194 cells along with 5×10^5 PSC4 (7×10^5 cells total) intramuscularly, adjacent to the right tibial periosteum.\nTumor volumes were measured by ultrasound as in Example 1A2. Approximately 15-30 frames out of 150-200 frames were analyzed and a tumor volume calculated and expressed in mm^3. When using the HA quantitation procedure described in Example 1A3, tumors grown from parental MH194+PSC4 cells contained 263±16 ng HA/mg tissue, whereas tumors grown from MH194/HAS3+PSC4 cells contained 1783±99 ng HA/mg tissue.\nMice containing parental MH194+PSC4 syngeneic tumors generated as described in Example 1C, with a mean tumor volume of 131±26 mm^3, were randomized into treatment groups, each containing 6 mice, such that the mean tumor volume of each group were substantially the same. Dexamethasone or saline (0.9% sodium chloride for injection) were administered intraperitoneally (IP) on days 0, 3, 7, 10, 14, and 17, and anti-PD-1 (BioXCell Inc, clone RMP1-14, Cat. No. BE0146) or saline were administered intraperitoneally (IP) on days 1, 4, 8, 11, 15, and 18, all at the dose levels indicated in Table 27. Tumor volumes were measured on days 0, 3, 7, 10, 14, 17, and 21. The middle dexamethasone dose level (3 mg/kg) was selected to approximate the human dose equivalent for clinical trials in which PEGPH20 is administered with dexamethasone to alleviate musculoskeletal discomfort."}, "[2]": {"conditions": "glucocorticoid administration; route (IV or PO); cited from earlier work"}, "[3]": {"conditions": "Dex 1 mg/kg IP 24 h prior to saline or α-PD-1 4 mg/kg IP"}, "[4]": {"conditions": "Dex 3 mg/kg IP 24 h prior to saline or α-PD-1 4 mg/kg IP"}, "[5]": {"conditions": "Dex 5 mg/kg IP 24 h prior to saline or α-PD-1 4 mg/kg IP"}}, "data": [{"smiles": "C[C@@H]1C[C@H]2[C@@H]3CCC4=CC(=O)C=C[C@]4(C)[C@@]3(F)[C@@H](O)C[C@]2(C)[C@@]1(O)C(=O)CO", "note": "[Dex]", "values": [{"measurement": "Tumor volume, Day 0", "setting": "[1]; [3]", "result": "133 ± 8", "unit": "mm^3"}, {"measurement": "Tumor volume, Day 0", "setting": "[1]; [4]", "result": "133 ± 9", "unit": "mm^3"}, {"measurement": "Tumor volume, Day 0", "setting": "[1]; [5]", "result": "125 ± 10", "unit": "mm^3"}, {"measurement": "Tumor volume, Day 3", "setting": "[1]; [3]", "result": "240 ± 19", "unit": "mm^3"}, {"measurement": "Tumor volume, Day 3", "setting": "[1]; [4]", "result": "253 ± 17", "unit": "mm^3"}, {"measurement": "Tumor volume, Day 3", "setting": "[1]; [5]", "result": "251 ± 22", "unit": "mm^3"}, {"measurement": "Tumor volume, Day 7", "setting": "[1]; [3]", "result": "374 ± 39", "unit": "mm^3"}, {"measurement": "Tumor volume, Day 7", "setting": "[1]; [4]", "result": "436 ± 23", "unit": "mm^3"}, {"measurement": "Tumor volume, Day 7", "setting": "[1]; [5]", "result": "390 ± 46", "unit": "mm^3"}, {"measurement": "Tumor volume, Day 10", "setting": "[1]; [3]", "result": "581 ± 50", "unit": "mm^3"}, {"measurement": "Tumor volume, Day 10", "setting": "[1]; [4]", "result": "553 ± 63", "unit": "mm^3"}, {"measurement": "Tumor volume, Day 10", "setting": "[1]; [5]", "result": "462 ± 46", "unit": "mm^3"}, {"measurement": "Tumor volume, Day 14", "setting": "[1]; [3]", "result": "904 ± 81", "unit": "mm^3"}, {"measurement": "Tumor volume, Day 14", "setting": "[1]; [4]", "result": "759 ± 81", "unit": "mm^3"}, {"measurement": "Tumor volume, Day 14", "setting": "[1]; [5]", "result": "729 ± 77", "unit": "mm^3"}, {"measurement": "Tumor volume, Day 17", "setting": "[1]; [3]", "result": "1354 ± 147", "unit": "mm^3"}, {"measurement": "Tumor volume, Day 17", "setting": "[1]; [4]", "result": "1346 ± 109", "unit": "mm^3"}, {"measurement": "Tumor volume, Day 17", "setting": "[1]; [5]", "result": "1202 ± 118", "unit": "mm^3"}, {"measurement": "Tumor volume, Day 21", "setting": "[1]; [3]", "result": "1899 ± 155", "unit": "mm^3"}, {"measurement": "Tumor volume, Day 21", "setting": "[1]; [4]", "result": "1867 ± 130", "unit": "mm^3"}, {"measurement": "Tumor volume, Day 21", "setting": "[1]; [5]", "result": "1630 ± 126", "unit": "mm^3"}, {"measurement": "TGI (tumor growth inhibition)", "setting": "[1]; [3]", "result": 19, "unit": "%"}, {"measurement": "TGI (tumor growth inhibition)", "setting": "[1]; [4]", "result": 21, "unit": "%"}, {"measurement": "TGI (tumor growth inhibition)", "setting": "[1]; [5]", "result": 31, "unit": "%"}]}, {"smiles": "C[C@]12CCC(=O)C=C1CC[C@@H]1[C@@H]2[C@@H](O)C[C@@]2(C)[C@H]1CC[C@]2(O)C(=O)CO", "note": "[Hydrocortisone]", "values": [{"measurement": "Equivalent Potency", "setting": "[2]", "result": 20, "unit": "mg"}]}, {"smiles": "C[C@H]1C[C@@H]2[C@H]([C@@H](O)C[C@@]3(C)[C@H]2CC[C@]3(O)C(=O)COC(=O)CCC(=O)O)[C@@]2(C)C=CC(=O)C=C12", "note": "[Methylprednisolone sodium succinate]", "values": [{"measurement": "Equivalent Potency", "setting": "[2]", "result": 4, "unit": "mg"}]}, {"smiles": "C[C@]12C=CC(=O)C=C1CC[C@@H]1[C@@H]2[C@@H](O)C[C@@]2(C)[C@H]1CC[C@]2(O)C(=O)CO", "note": "[Prednisolone]", "values": [{"measurement": "Equivalent Potency", "setting": "[2]", "result": 5, "unit": "mg"}]}]}
